Measured values from patent US20260042801A1, “COMPOSITIONS AND METHODS FOR DYE-BOUND CYCLIZED PEPTIDES FOR MEDICAL USE” (The Texas A&M University System, priority 2022, published 2026).

Legend:
[1] = tested on: adult cortical neurons on astrocytes; experiment: Neurons plated on 5c(i)-pretreated astrocytes; format: cell-based, mouse; details: astrocytes cultured with 5c(i) 2 days, 5c(i) removed, neurons 2DIV
Method: (§1) FIGS. 4A-4D: 5c(i) induces Synapsin I production and reduces C3 and GSK-3s expression from astrocytes promoting neuron survival and neurite growth. Primary adult cortical astrocytes from 6-month-old male mice were incubated with 5 μM 5c(i) for 3 days. Graph represents mean±SEM of percent change in fluorescent intensity (Synapsin I and C3) or chemiluminescence (GSK-3β) relative to Vehicle (4A and 4D). Images represent the 4B) Vehicle and 4C) 5 μM 5c(i) treated groups stained with Synapsin I and DAPI. D) Cortical astrocytes from 6-month-old male mice were plated and treated with 5c(i) or Vehicle for 2 days. Cells were then washed and cortical neurons from 6-month-old male mice were added on top of the astrocytes. […] Scale bar=50 μm.
(§2) To determine if 5c(i) can modulate astrocytes, adult astrocytes from 6-month-old male mice were treated with 5c(i) for 3 days and stained with Synapsin I and C3 to measure changes in fluorescent intensity or western blot was conducted on the cell lysate to assess changes in GSK-3β expression (FIG. 4). […] To determine if 5c(i) treated astrocytes can directly benefit neuronal recovery, astrocytes were cultured with 5c(i) for 2 days before removing 5c(i) from the culture and plating adult neurons on top of the astrocytes for 2DIV, resulting in increased neuron survival and neurite growth. […]

TrkB = biological target: T1, TrkB (Homo sapiens, UniProt Q16620); experiment: Cell-associated fluorescence saturation binding, TrkB-HEK293 cells; details: 2.5 h, with and without 0.6 nM BDNF
T1 construct: expressed in transfected cells; host or cells: HEK293 (TrkB-HEK293)
Method: (§3) FIG. 2: 5c(i) binds to TrkB and TrkC receptors. Transfected cell lines that are Trk positive cells (TrkB-HEK293 and TrkC-NIH/3T3) and non-transfected cell lines that are Trk negative cells (HEK293 and NIH/3T3) were seeded approximately 2,000 cells/well in a 96-well plate and incubated for 24 hours. The cells were treated with a serial dilution of compound (0, 10, 25, 50, 100, 200, 500, and 1000 nM) in serum-free media (SFM) with and without A) 0.6 nM of BDNF (TrkB-HEK293 and HEK293) and B) 0.2 nM of NT-3 (TrkC-NIH/3T3 and NIH/3T3) for 2.5 h. After that, the cells were washed with PBS once to remove unbound compounds and dissolved in 1% (w/v) aqueous sodium dodecyl sulfate. Cell-associated fluorescence was then determined by measuring the emission of the resulting solution upon λex (540/25 nm) and λem (620/40 nm) using Agilent BioTek Synergy H4 Hybrid Microplate Reader. Kd was calculated by GraphPad Prism 9 using Binding saturation (One site—Specific binding).
(§4) Transfected cell lines that are Trk positive cells (TrkA-HeLa, TrkB-HEK293, and TrkC-NIH/3T3) and non-transfected cell lines that are Trk negative cells (HeLa, HEK293, and NIH/3T3) were seeded at 2,000 cells/well in a 96-well plate (0.32 cm^2 growth area) and incubated inside a 5% CO2 incubator at 37° C. for 24 hours. […] The dissociation constant (Kd) was calculated using binding saturation (One site—Specific binding).

[2] = mouse, in vivo
Method: 8-week-old male mice with a severe T8 contusion/compression SCI were injected IP daily with 5c(i) for 7 weeks (5 and 25 mg/kg/day). […] 7 weeks post injury, heparinized plasma was collected and 12B) alanine aminotransferase (ALT), 12C) alkaline phosphatase (ALP), 12D) aspartate aminotransferase (AST), and 12E) blood urea nitrogen (BUN) levels were assessed. […] N=6-8. Graphs show mean and SEM. # (p<0.1) * (p<0.05) ** (p<0.01) *** (p<0.001) **** (p<0.0001). Student's T-test.
For the administration of pharmaceutical agents, the vehicle was 0.6 mL/kg of 100% dimethyl sulfoxide (DMSO). 5c(i) (at 5 and 25 mg/kg/day) diluted in vehicle or vehicle alone was administered once daily through intraperitoneal (IP) injections at a volume of 0.6 mL/kg/day.
Seven weeks after injury, histological analysis was performed on livers, and toxicology screens were conducted on plasma (FIG. 12).

[3] = tested on: cells lacking TrkB/TrkC receptors; experiment: Binding and activity in Trk negative cells (HEK293 and NIH/3T3); details: non-transfected HEK293 and NIH/3T3
Method: as §3, §4

GSK-3β = experiment: Astrocyte GSK-3β western blot; format: cell-based, mouse; details: astrocytes from 6-month-old male mice, 5 μM, 3 days, cell lysate
Method: as §1, §2

Synapsin I = experiment: Astrocyte Synapsin I staining (fluorescent intensity); format: cell-based, mouse; details: astrocytes from 6-month-old male mice, 5 μM, 3 days
Method: as §1, §2

T1 sequence (Q16620 32-822, species assumed): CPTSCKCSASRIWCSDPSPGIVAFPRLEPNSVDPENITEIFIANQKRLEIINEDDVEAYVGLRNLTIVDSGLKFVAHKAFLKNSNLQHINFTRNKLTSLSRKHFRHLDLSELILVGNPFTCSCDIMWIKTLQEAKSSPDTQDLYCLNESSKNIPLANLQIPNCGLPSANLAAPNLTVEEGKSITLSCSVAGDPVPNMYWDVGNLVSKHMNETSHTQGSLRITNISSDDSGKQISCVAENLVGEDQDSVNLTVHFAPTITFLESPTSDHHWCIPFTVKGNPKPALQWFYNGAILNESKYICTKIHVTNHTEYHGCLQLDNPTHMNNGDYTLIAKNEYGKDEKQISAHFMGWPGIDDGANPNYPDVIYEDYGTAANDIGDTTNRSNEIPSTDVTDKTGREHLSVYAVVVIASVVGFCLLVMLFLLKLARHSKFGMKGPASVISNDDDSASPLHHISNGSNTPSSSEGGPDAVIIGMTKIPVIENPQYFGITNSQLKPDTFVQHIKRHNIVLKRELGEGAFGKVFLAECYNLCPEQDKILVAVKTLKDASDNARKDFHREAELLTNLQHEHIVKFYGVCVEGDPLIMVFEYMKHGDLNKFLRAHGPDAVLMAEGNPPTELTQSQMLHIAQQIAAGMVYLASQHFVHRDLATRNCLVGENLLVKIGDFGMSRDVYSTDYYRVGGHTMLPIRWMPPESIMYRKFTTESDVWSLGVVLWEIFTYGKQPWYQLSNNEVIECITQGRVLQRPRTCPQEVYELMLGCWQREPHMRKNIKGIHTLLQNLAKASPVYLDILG

## C-DIRG-C BODIPY® (fluorescent dye) [5c(i)]
[1]
  neurite growth on pretreated astrocytes: increased
  neuron survival on pretreated astrocytes: increased
TrkB
  affinity for TrkB (Kd): low nanomolar affinity
[2]
  alanine aminotransferase (ALT): does not alter
  alkaline phosphatase (ALP): does not alter
  aspartate aminotransferase (AST): does not alter
  blood urea nitrogen (BUN): does not alter
[3]
  binding and biological activity in cells lacking TrkB/TrkC receptors: lack of binding and biological activity
GSK-3β
  GSK-3β expression: reduction
Synapsin I
  Synapsin I production: significant increase
